For data set [1], the system named is Daphnia magna.
The subject of data set [2] is Escherichia coli, ATCC 25922. Briefly: Antibacterial activity, serial dilutions in liquid broth (MIC/MBC). Format: cell-based. The following applies: E. coli (G −). The text has this:
(§1) All synthesized complexes and the ligand were screened for their in vitro antibacterial activity against Gram-positive bacteria (Staphylococcus aureus), Gram-negative bacteria (Escherichia coli, Klebsiella pneumoniae) and antifungal activity (Candida albicans) strains using the paper disc diffusion technique (for the qualitative determination) and the serial dilutions in liquid broth method (for determination of MIC). Furacillinum and nystatine were used as standard drugs.
(§2) The antibacterial activity of complexes and also of their prototype furacilin has been determined under liquid nutritive environment (2% of peptonate bullion (pH 7.0)) using the successive dilutions method. Escherichia coli, Klebsiella pneumoniae, and Staphylococcus aureus stems were used as reference culture for the in vitro experiment. The dissolution of studied substances in dimethylformamide, microorganism cultivation, suspension obtaining, determination of minimal inhibition concentration (MIC) and minimal bactericide concentration (MBC) have been carried out according to the method previously reported.

Data set [3] deals with Klebsiella pneumoniae, ATCC 31,488. The data set is described as above. Format: cell-based. The following applies: K. pneumoniae (G −).
Source text: as §1, §2

Data set [4] concerns Staphylococcus aureus, ATCC 25923. The data set is described as above. Format: cell-based. As to conditions: S. aureus (G +).
Source text: as §1, §2

In data set [5] the test system is Candida albicans. The data set is described as follows: Antifungal (antimycotic) activity, liquid Sabouraud medium (MIC/MBC). Format: cell-based. As to conditions: C. albicans.
Source text: as §1
Antimycotic properties of the complexes were investigated in vitro on laboratory stem Candida albicans. The activity has been determined in a liquid Sabouraud nutritive environment (pH 6.8). The inoculates were prepared from fungi stems which were harvested over 3–7 days. Their concentration in suspension is (2–4) × 10^6 colonies form unities in milliliter. Sowings for levures and micelles were incubated at 37 °C during 7 and 14 days, respectively.

Data set [6] in a line: Solubility in compendial aqueous media. Format: physicochemical. As to conditions: 37 °C, 30 min, mean ± standard deviation, n = 3. On the procedure: Solubility assessment was conducted in compendial aqueous solutions prepared according to United States Pharmacopoeia USP39/NF34): hydrochloric acid 0.1 N pH 1.2, acetate buffer pH 4.5 and phosphate buffer 6.8. These buffer systems are routinely used for screening of drug dissolution testing and they simulate the pH values of proximal gastrointestinal regions. The standard samples were prepared by diluting the stock solution of 80 µg/mL in dimethyl sulfoxide (with 0.2% pyridine, v/v) with corresponding media. The reagents were of analytical grade and used as received.
The assay was performed using a SpectraMax Plus 84 Plate reader reader (Sunnyvale, CA, USA), Molecular Devices LLC (US), equiped with SoftMax software version 6.4.2 (Sunnyvale, CA, USA). Separate plates were loaded with standard solutions in nine concentrations (0.2 to 80 µg/mL). For evaluation of the aqueous solubility, the samples were prepared in triplicate by adding 10 µL of the stock solution to the wells loaded with 190 µL of each buffer, using MultiScreen HTS plates (PCF, code MSSLBPC, Merck Millipore, Darmstadt, Germany). After 30 minutes of incubation at 37 ± 0.5 °C under agitation (250 rpm, IKA KS 4000 ic control, IKA, Staufen, Germany), the plates were filtrated under vacuum using a Vac-Man 96 Vacuum manifold (Promega Corporation, Madison, WI, USA). The solutions were collected in V-bottom polypropylene 96-well microplates (Greiner Bio-One, Kremsmünster, Austria). Volumes of 100 µL were transferred to UV-Star 96-well microplate with flat bottom (Chimney well, Grained Bio-One) and diluted by addition of 100 µL of the corresponding medium. The absorbance corresponding to each well was determined at fixed wavelengths: 280, 300, 320, 340, 360 and 800 nm. The reduced value of absorbance, calculated by the sum of the values recorded at the six wavelengths, were used for the calibration curve and subsequent determination of concentration in each solubility sample.

The test system of data set [7] is A375 human melanoma cell line. The data set is described as follows: Alamar blue cell viability assay. Format: cell-based. As to conditions: 48 h treatment, 10 µM, relative to untreated control. How it is done:
(§3) Compounds HL, 1, 5, 6 and 8 were dissolved in dimethyl sulfoxide (DMSO; Sigma-Aldrich, Ayrshire, UK) and stored at 2–8 °C. Compounds 2, 3, 4 and 7 were dissolved in pyridine (Fluka, Munich, Germany). A stock solution of 10 mM in the proper solvents was prepared; as for the final concentration (10 µM), successive dilution of the stock solution with culture medium was made.
(§4) The breast cancer cell lines were cultured as follow: MCF-7 human breast cancer cell line (ATCC, Rockville, MD, USA) was cultured in EMEM (Sigma Aldrich, Munich, Germany) supplemented with 10% FCS (fetal bovine serum, PromoCell, Heidelberg, Germany), 1% penicillin-streptomycin (Pen/Strep, 10,000 IU/mL; PromoCell, Heidelberg, Germany), 1% nonessential amino acids and 1% glutamine (PromoCell, Heidelberg, Germany). SKBR-3 human breast cancer cell line was cultured in McCoy’s 5a Medium Modified (Sigma Aldrich, Munich, Germany) supplemented with 10% FCS (fetal bovine serum, PromoCell, Heidelberg, Germany), 1% penicillin-streptomycin (Pen/Strep, 10,000 IU/mL; PromoCell, Heidelberg, Germany). A375 human melanoma cell line was cultured in DMEM containing 15% FCS (fetal bovine serum, PromoCell, Heidelberg, Germany) and 1% penicillin-streptomycin (Pen/Strep, 10,000 IU/mL; PromoCell, Heidelberg, Germany). Cells were maintained at an atmosphere of 5% CO2 at 37 °C. NCI-H1573 lung adenocarcinoma cell line was cultured in RPMI-1640 Medium (ATCC, Rockville, MD, USA) supplemented with 10% FCS (fetal bovine serum, PromoCell, Heidelberg, Germany), 1% penicillin-streptomycin (Pen/Strep, 10,000 IU/mL; PromoCell, Heidelberg, Germany).
(§5) All tested cell lines were seeded onto a 96-well microplate ([…]) and left overnight to attach to the bottom of the well. After 24 h, the amount of 150 μL of the tested substances dissolved into the culture medium was added and cells were incubated for 48 h. After the incubation period, a volume of 15 μL of the Alamar blue (BioSource, Camarillo, CA, USA) solution was added. After another 10 h of incubation at 37 °C, the samples were spectrophotometrically analyzed using a microplate reader. The wave lengths used were 570 nm and 600 nm, respectively. Wells with untreated cells were used as controls. The highest concentration of DMSO and pyridine (0.1%) used to prepare stock solutions was also tested, in order to identify the solvent activity. All measurements were performed in triplicate and data were presented as mean ± standard deviation.
For orientation: Resazurin is reduced to fluorescent resorufin, in cell work by metabolically active cells.

In data set [8] the test system is MCF-7 human breast cancer cell line. The data set is described as follows: Alamar blue cell viability assay. Format: cell-based. As to conditions: 48 h treatment, 10 µM, relative to untreated control. How it is done:
as §3, §4, §5

Data set [9] has as its system SKBR-3 human breast cancer cell line. Briefly: Alamar blue cell viability assay. Format: cell-based. The following applies: 48 h treatment, 10 µM, relative to untreated control. How it is done: as §3, §4, §5
Data set [10] in a line: Qualitative solubility in organic solvents. Format: physicochemical.
For data set [11], the system named is NCI-H1573 lung adenocarcinoma cell line. The data set is described as follows: Alamar blue cell viability assay. Format: cell-based. The following applies: 48 h treatment, 10 µM, relative to untreated control. How it is done: as §3, §4, §5
Where [12] appears, read: Hydrochloric Acid 0.1 N (pH = 1.2).

Converted amounts (≈) assume the structure as drawn. Read-outs that look alike come from different tables or passages of the source.

A word on the LC50: it is the concentration lethal to half of the exposed cells or organisms. For the compound `CC(=O)[O-].CC(=O)[O-].[Cu+2]` [Cu(CH3COO)2], the “LC50 of copper acetate relative to the perchlorate” value in [1] (after 24 h of exposure, printed as 'lower') is “about 25 fold”. In addition, the results for the LC50 in data set [1] (incubation period 24 h) and in data set [1] (incubation period 48 h) were 9.68 µM and 0.44 µM, respectively.
Compound `[Cu+2].[O-][Cl+3]([O-])([O-])[O-].[O-][Cl+3]([O-])([O-])[O-]` [Cu(ClO4)2] displayed an LC50 in data set [1] (incubation period 24 h) of 0.39 µM.
As for `O=[N+]([O-])[O-].O=[N+]([O-])[O-].[Cu+2]` [Cu(NO3)2], the LC50 in data set [1] (incubation period 24 h) was determined as 7.43 µM; in data set [1] (incubation period 48 h), 1.39 µM.
The matching figures for `[Cl][Cu][Cl]` [CuCl2]: 4.23 µM and 0.97 µM.
Usually MIC stands for the lowest concentration that inhibits growth of the organism. Low readings indicate a more susceptible organism, high ones a less susceptible organism. Take `NC(=O)N/N=C/c1ccc([N+](=O)[O-])o1` [Furacillinum, reference compound]: the MBC in [2] was 37.5 µg/mL (≈ 189 µM); in data set [3], above 300 µg/mL; in [4], 9.35 µg/mL (≈ 47.2 µM). Also, the minimum inhibitory concentration (MIC) in [2] is given as 18.7 µg/mL (≈ 94.4 µM); in data set [3], above 300 µg/mL; in [4], 9.35 µg/mL (≈ 47.2 µM).
`[Cl][Pt-2]([Cl])([Cl])[Cl].[K+].[K+]` [K2PtCl4]: the LC50 came out at 27.7 µM in [1] (incubation period 24 h) and 5.63 µM in data set [1] (incubation period 48 h).
The matching figures for `[Cl][Ni][Cl]` [NiCl2]: 100 µM and 16.2 µM.
In data set [5], `C[C@@H]1[C@H](O)[C@@H](C)/C=C/C=C/CC/C=C/C=C/C=C/C=C/C(O[C@H]2O[C@H](C)[C@@H](O)[C@H](N)[C@@H]2O)CC2O[C@](O)(CC(O)C(O)CCC(O)CC(O)CC(O)CC(=O)O[C@H]1C)CC(O)C2C(=O)O` (stereo partly shown) [Nystatine, reference compound] displayed an MBC of 80 µg/mL (≈ 86.4 µM) and an MIC of 80 µg/mL (≈ 86.4 µM).
Consider `[Cl-].[Cl-].[Zn+2]` [ZnCl2], for which the results for the LC50 in data set [1] (incubation period 24 h) and in data set [1] (incubation period 48 h) were 15.4 µM and 0.89 µM, respectively.
Turning to `COc1cccc(C=NNC(=O)c2ccncc2)c1[O-].O.O.[Cl-].[Cu+2]` [complex 1, [Cu(L)(Cl)]·2H2O], the “solubility in compendial media” value in [6] (Acetate Buffer (pH = 4.5)) was 1.89 ± 0.20 µg/mL; in [6] (setting [12]), 2.34 ± 0.28 µg/mL; in data set [6] (Phosphate Buffer (pH = 6.8)) it was below 0.2 µg/mL. For the same compound, the MBC in data set [2] stood at 500 µg/mL; in [3], 500 µg/mL; in [4], 0.03 µg/mL; in data set [5], 15 µg/mL. The MIC in data set [2] came out at 500 µg/mL; in data set [3], 500 µg/mL; in [4], 0.015 µg/mL; in data set [5], 7 µg/mL. The Viability % in data set [7] worked out at 84.43%; in [8], 2.47%; in [9] it was 25.24%. Besides, the “solubility in organic solvents (qualitative)” value (from here on “solubility in organic solvents”) in data set [10] was “soluble in acetone, acetonitrile, DMF and DMSO, and is partially soluble in ethanol and methanol”. Besides, the LC50 in data set [1] (incubation period 24 h) amounted to 394 µM; in data set [1] (incubation period 48 h), 69.5 µM.
As for `COc1cccc(C=NNC(=O)c2ccncc2)c1[O-].[Cl-].[Ni+2]` [complex 7, [Ni(L)(Cl)]], the “solubility in compendial media” value in data set [6] (Acetate Buffer (pH = 4.5)) was 1.91 ± 0.26 µg/mL; in [6] (setting [12]), 2.26 ± 0.44 µg/mL; in data set [6] (Phosphate Buffer (pH = 6.8)), below 0.2 µg/mL. The MBC is listed as 500 µg/mL in data set [2], 500 µg/mL in data set [3], 0.7 µg/mL in [4] and 125 µg/mL in data set [5]. Further, the MIC is given as 500 µg/mL in data set [2], 500 µg/mL in data set [3], 0.7 µg/mL in [4] and 125 µg/mL in data set [5]. Further, the Viability % in data set [7] turned out to be 98.97%; in data set [8] it was 47.75%; in data set [9], 21.11%. Besides, the “solubility in organic solvents” value in [10] was “soluble in methanol, pyridine, DMF and DMSO, and is partially soluble in acetonitrile, acetone”. The LC50 in data set [1] (incubation period 24 h) was determined as 351 µM; in data set [1] (incubation period 48 h) it was 210 µM.
As for `COc1cccc(C=NNC(=O)c2ccncc2)c1[O-].[Cl-].[Pt+2]` [complex 8, [Pt(L)(Cl)]], the “solubility in compendial media” value is given as 2.49 ± 0.09 µg/mL in data set [6] (Acetate Buffer (pH = 4.5)), 1.33 ± 0.05 µg/mL in [6] (setting [12]) and below 0.2 µg/mL in [6] (Phosphate Buffer (pH = 6.8)). Also, the MBC in [2] amounted to 250 µg/mL; in data set [3], 500 µg/mL; in [4], 0.7 µg/mL; in data set [5], 63 µg/mL. The MIC was 125 µg/mL in data set [2], 250 µg/mL in data set [3], 0.7 µg/mL in [4] and 63 µg/mL in [5]. Also, the Viability % in [7] came out at 73.45%; in [8] it was 21.71%; in [11], 20.34%. In data set [10], the “solubility in organic solvents” value was “soluble in DMF and DMSO, and is partially soluble in ethanol, methanol, acetonitrile, acetone”. Moreover, the figures for the LC50 in [1] (incubation period 24 h) and in data set [1] (incubation period 48 h) were 469 µM and 78.2 µM, respectively.
